Results from ChEMBL document CHEMBL4311945, “Development of Dual Chitinase Inhibitors as Potential New Treatment for Respiratory System Diseases” (J Med Chem, 2019).
pIC50: −log10 of the molar value. ≈ marks a conversion by molar mass, not a printed value. One block for each molecule: values may come before it.

Columns and labels:
[1] = target: T1, Voltage-gated inwardly rectifying potassium channel KCNH2 (Homo sapiens, UniProt Q12809); test: Displacement of Tracer Red from human ERG by fluorescence polarization assay
[2] = target: dopamine transporter (DAT) (Homo sapiens, UniProt Q01959); test: Displacement of [3H]BTCP from recombinant human dopamine transporter at 10 uM after 120 mins by scintillation counting analysis relative to control; type: ADME; conditions: probe [3H]BTCP
[3] = target: Acidic mammalian chitinase (Mus musculus, UniProt Q91XA9); test: Inhibition of full-length C-terminal his-tagged mouse acidic mammalian chitinase expressed in CHO-K1 cells assessed as reduction in chitinolytic activity using 4-methylumbelliferyl-beta-D-N,N'-diacetylchitobioside hydrate as substrate after 60 mins by fluorometric assay
Chitotriosidase-1 [4] = target: Chitotriosidase-1 (Homo sapiens, UniProt Q13231); test: Inhibition of full-length C-terminal his-tagged human CHIT1 expressed in CHOK1 cells assessed as reduction in chitinolytic activity using 4-methylumbelliferyl-beta-D-N,N',N\"-triacetylchitotrioside as substrate after 60 mins by fluorometric assay; type: cell-based
Chitotriosidase-1 [5] = target: Chitotriosidase-1 (Mus musculus, UniProt Q9D7Q1); test: Inhibition of full-length C-terminal his-tagged mouse CHIT1 expressed in CHO-K1 cells assessed as reduction in chitinolytic activity using 4-methylumbelliferyl-beta-D-N,N',N\"-triacetylchitotrioside as substrate after 60 mins by fluorometric assay; type: cell-based
[6] = Clearance in BALB/c mouse at 3 mg/kg, iv administered as single bolus dose measured after 24 hrs by LC/MS/MS analysis; type: ADME, organism-based; conditions: in vivo
[7] = target: T1, Voltage-gated inwardly rectifying potassium channel KCNH2; test: Inhibition of human ERG expressed in CHO-K1 cells by automated Patch Clamp method; type: cell-based
[8] = Half-life in BALB/c mouse at 3 mg/kg, iv administered as single bolus dose measured after 24 hrs by LC/MS/MS analysis; type: ADME, organism-based; conditions: in vivo
[9] = Cmax in BALB/c mouse at 3 mg/kg, iv administered as single bolus dose measured after 24 hrs by LC/MS/MS analysis; type: ADME, organism-based; set-up: dose 3 mg/kg, route intravenous; conditions: in vivo
[10] = Lipophilicity, logD of the compound at pH 7.4; type: physicochemical; conditions: buffer
[11] = Cmax in BALB/c mouse at 10 mg/kg, po measured after 24 hrs by LC/MS/MS analysis; type: ADME, organism-based; set-up: dose 10 mg/kg, route oral; conditions: in vivo
[12] = AUC (0 to infinity) in Sprague-Dawley rat at 3 mg/kg, iv administered as single bolus dose measured after 5 to 12 hrs by LC/MS/MS analysis; type: ADME, organism-based; set-up: dose 3 mg/kg, time infinity, route intravenous; conditions: in vivo
[13] = Half-life in Sprague-Dawley rat at 10 mg/kg, po measured upto 12 hrs by LC/MS/MS analysis; type: ADME, organism-based; conditions: in vivo
[14] = target: Sodium-dependent dopamine transporter (Rattus norvegicus, UniProt P23977); test: Displacement of [3H]DA from rat dopamine transporter after 15 mins by scintillation counting analysis; type: ADME
[15] = Cmax in Sprague-Dawley rat at 3 mg/kg, iv administered as single bolus dose measured after 5 to 12 hrs by LC/MS/MS analysis; type: ADME, organism-based; set-up: dose 3 mg/kg, route intravenous; conditions: in vivo
[16] = Tmax in BALB/c mouse at 10 mg/kg, po measured after 24 hrs by LC/MS/MS analysis; type: ADME, organism-based; conditions: in vivo
[17] = Genotoxicity in Salmonella typhimurium; type: toxicity; conditions: salmonella enterica subsp. enterica serovar typhimurium
[18] = Cmax in Sprague-Dawley rat at 10 mg/kg, po measured upto 12 hrs by LC/MS/MS analysis; type: ADME, organism-based; set-up: dose 10 mg/kg, route oral; conditions: in vivo
[19] = AUC (0 to infinity) in BALB/c mouse at 10 mg/kg, po measured after 24 hrs by LC/MS/MS analysis; type: ADME, organism-based; set-up: dose 10 mg/kg, route oral, time infinity; conditions: in vivo
[20] = Oral bioavailability in BALB/c mouse at 10 mg/kg measured after 24 hrs by LC/MS/MS analysis; type: ADME, organism-based; conditions: in vivo
[21] = target: Acidic mammalian chitinase (Homo sapiens, UniProt Q9BZP6); test: Inhibition of full-length C-terminal his-tagged human acidic mammalian chitinase expressed in CHOK1 cells assessed as reduction in chitinolytic activity using 4-methylumbelliferyl-beta-D-N,N-diacetylchitobioside hydrate as substrate after 60 mins by fluorometric assay
[22] = Tmax in Sprague-Dawley rat at 10 mg/kg, po measured upto 12 hrs by LC/MS/MS analysis; type: ADME, organism-based; conditions: in vivo
[23] = Solubility of the compound in water; type: physicochemical
[24] = Half-life in Sprague-Dawley rat at 3 mg/kg, iv administered as single bolus dose measured after 5 to 12 hrs by LC/MS/MS analysis; type: ADME, organism-based; conditions: in vivo
[25] = Oral bioavailability in Sprague-Dawley rat at 10 mg/kg measured upto 12 hrs by LC/MS/MS analysis; type: ADME, organism-based; conditions: in vivo
[26] = AUC (0 to infinity) in Sprague-Dawley rat at 10 mg/kg, po measured upto 12 hrs by LC/MS/MS analysis; type: ADME, organism-based; set-up: dose 10 mg/kg, route oral, time infinity; conditions: in vivo
[27] = Drug uptake in BALB/c mouse brain at 10 mg/kg, po administered as single dose after 2 hrs by LC/MS/MS analysis; type: ADME, organism-based; conditions: in vivo
[28] = target: Sodium-dependent dopamine transporter (Homo sapiens, UniProt Q01959); test: Inhibition of radioligand binding to human dopamine transporter by radioligand binding assay; type: ADME
[29] = Half-life in BALB/c mouse at 10 mg/kg, po measured after 24 hrs by LC/MS/MS analysis; type: ADME, organism-based; conditions: in vivo
Mus musculus = test: Antiinflammatory activity in C57BL/6 mouse model of house-dust mite induced pulmonary inflammation assessed as reduction in total CD45 positive cells in bronchoalveolar lavage fluid at 50 mg/kg, po administered once daily starting from day 7 post house-dust mite challenge and measured on day 19 by flow cytometric method relative to control; type: functional; set-up: scale not given: the % may be the effect or the level left
[30] = AUC (0 to infinity) in BALB/c mouse at 3 mg/kg, iv administered as single bolus dose measured after 24 hrs by LC/MS/MS analysis; type: ADME, organism-based; set-up: dose 3 mg/kg, time infinity, route intravenous; conditions: in vivo

Chain of dopamine transporter (DAT) (Q01959 whole entry): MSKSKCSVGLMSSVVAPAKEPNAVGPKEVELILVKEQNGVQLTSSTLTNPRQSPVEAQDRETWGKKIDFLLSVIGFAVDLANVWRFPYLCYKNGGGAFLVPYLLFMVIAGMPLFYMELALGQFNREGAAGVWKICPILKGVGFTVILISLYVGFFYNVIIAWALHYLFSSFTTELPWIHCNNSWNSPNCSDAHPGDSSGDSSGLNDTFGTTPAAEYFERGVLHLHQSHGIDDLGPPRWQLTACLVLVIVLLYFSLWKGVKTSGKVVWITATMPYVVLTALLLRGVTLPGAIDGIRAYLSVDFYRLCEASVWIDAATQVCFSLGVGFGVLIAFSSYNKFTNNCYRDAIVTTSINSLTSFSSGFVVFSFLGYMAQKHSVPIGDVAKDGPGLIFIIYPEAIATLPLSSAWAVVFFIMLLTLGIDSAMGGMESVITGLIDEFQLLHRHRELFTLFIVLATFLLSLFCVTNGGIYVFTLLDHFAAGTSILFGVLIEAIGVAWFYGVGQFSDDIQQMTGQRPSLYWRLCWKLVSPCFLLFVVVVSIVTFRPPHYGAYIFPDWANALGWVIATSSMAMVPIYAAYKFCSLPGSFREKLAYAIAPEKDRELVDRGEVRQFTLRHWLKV
T1 sequence (Q12809 whole entry): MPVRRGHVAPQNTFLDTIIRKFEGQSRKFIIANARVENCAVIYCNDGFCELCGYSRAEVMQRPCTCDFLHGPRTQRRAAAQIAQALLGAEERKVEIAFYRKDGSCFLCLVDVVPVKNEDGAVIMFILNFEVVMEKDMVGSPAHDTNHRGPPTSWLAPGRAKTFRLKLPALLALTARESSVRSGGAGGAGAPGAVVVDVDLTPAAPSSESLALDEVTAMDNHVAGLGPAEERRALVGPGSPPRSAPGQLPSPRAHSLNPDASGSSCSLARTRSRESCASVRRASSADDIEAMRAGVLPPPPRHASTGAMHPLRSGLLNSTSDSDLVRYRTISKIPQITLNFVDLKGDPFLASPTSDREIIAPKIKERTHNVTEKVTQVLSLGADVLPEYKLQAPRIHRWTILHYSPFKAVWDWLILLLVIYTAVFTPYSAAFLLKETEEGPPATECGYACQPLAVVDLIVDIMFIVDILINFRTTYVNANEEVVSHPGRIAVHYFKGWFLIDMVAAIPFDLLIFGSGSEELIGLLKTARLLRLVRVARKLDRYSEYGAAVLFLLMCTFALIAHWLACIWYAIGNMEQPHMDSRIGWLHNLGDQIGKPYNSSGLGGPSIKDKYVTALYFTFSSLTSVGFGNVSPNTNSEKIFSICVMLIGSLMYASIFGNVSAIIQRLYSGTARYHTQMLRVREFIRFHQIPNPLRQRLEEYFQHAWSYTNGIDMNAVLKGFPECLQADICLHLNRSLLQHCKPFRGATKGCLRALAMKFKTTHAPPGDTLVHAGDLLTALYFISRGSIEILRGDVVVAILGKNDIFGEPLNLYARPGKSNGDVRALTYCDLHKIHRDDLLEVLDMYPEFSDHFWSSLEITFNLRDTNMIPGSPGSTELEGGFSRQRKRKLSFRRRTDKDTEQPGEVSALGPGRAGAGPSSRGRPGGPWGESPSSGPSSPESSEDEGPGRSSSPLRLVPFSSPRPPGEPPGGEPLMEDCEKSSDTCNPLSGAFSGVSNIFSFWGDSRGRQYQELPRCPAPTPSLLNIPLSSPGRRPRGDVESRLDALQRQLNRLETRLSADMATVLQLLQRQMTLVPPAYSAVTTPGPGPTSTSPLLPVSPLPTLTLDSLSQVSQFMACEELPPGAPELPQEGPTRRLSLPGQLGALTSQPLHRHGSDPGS
Chain of Acidic mammalian chitinase (Mus musculus, UniProt Q91XA9) (Q91XA9 whole entry): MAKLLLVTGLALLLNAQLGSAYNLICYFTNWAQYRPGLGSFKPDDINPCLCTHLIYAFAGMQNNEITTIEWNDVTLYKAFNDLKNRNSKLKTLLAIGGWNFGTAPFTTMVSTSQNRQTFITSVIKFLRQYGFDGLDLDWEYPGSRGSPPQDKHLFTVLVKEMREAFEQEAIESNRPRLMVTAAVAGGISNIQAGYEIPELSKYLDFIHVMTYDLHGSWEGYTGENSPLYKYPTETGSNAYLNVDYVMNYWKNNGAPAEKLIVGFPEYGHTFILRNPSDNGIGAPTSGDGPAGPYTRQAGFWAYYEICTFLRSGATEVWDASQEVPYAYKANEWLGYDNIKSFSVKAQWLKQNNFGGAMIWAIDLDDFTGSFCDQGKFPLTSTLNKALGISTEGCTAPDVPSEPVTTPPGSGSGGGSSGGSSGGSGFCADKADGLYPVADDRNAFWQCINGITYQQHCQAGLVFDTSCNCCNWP
Chain of Chitotriosidase-1 (Mus musculus, UniProt Q9D7Q1) (Q9D7Q1 whole entry): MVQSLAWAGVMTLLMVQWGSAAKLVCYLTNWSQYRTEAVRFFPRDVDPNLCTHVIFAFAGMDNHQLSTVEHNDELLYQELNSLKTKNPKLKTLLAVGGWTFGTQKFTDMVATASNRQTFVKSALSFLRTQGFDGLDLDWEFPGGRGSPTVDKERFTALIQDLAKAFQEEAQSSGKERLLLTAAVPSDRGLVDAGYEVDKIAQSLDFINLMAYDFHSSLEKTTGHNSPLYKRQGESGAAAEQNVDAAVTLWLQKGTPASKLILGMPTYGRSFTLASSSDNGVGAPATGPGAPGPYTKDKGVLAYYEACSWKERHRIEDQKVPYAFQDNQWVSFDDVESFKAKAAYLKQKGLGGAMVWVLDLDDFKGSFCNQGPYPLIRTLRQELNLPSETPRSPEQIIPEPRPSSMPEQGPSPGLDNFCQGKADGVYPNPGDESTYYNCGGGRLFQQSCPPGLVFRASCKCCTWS
Chain of Chitotriosidase-1 (Homo sapiens, UniProt Q13231) (Q13231 whole entry): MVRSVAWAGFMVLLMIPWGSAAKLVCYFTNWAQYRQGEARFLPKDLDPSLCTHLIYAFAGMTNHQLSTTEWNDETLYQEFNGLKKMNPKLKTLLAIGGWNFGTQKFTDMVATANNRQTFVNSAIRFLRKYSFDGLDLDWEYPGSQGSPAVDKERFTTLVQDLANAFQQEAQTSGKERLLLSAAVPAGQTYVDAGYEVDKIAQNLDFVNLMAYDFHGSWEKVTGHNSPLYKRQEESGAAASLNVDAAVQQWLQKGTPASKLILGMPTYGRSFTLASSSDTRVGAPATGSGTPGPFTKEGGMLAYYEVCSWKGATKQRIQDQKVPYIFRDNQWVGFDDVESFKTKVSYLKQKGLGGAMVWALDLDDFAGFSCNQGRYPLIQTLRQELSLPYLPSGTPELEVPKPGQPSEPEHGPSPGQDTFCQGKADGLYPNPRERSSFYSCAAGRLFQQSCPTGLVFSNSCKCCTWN
Chain of Sodium-dependent dopamine transporter (Rattus norvegicus, UniProt P23977) (P23977 whole entry): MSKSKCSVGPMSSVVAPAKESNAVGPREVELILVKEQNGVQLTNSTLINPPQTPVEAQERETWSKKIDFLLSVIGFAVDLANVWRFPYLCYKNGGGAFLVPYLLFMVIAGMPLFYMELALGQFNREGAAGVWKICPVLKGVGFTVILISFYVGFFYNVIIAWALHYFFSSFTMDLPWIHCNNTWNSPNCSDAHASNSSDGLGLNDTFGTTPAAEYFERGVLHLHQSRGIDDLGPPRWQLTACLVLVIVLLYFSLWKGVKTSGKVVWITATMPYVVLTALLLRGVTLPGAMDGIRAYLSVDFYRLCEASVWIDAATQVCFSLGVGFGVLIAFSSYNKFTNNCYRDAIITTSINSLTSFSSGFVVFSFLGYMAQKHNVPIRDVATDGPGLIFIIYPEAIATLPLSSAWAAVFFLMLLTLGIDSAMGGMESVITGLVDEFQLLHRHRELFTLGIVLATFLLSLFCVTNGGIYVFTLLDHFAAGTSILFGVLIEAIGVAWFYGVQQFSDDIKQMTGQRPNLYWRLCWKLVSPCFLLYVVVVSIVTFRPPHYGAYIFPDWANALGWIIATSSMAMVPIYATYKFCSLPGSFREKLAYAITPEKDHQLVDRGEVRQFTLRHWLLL
Chain of Sodium-dependent dopamine transporter (Homo sapiens, UniProt Q01959) (Q01959 whole entry): as the sequence (Q01959 whole entry) above
Chain of Acidic mammalian chitinase (Homo sapiens, UniProt Q9BZP6) (Q9BZP6 whole entry): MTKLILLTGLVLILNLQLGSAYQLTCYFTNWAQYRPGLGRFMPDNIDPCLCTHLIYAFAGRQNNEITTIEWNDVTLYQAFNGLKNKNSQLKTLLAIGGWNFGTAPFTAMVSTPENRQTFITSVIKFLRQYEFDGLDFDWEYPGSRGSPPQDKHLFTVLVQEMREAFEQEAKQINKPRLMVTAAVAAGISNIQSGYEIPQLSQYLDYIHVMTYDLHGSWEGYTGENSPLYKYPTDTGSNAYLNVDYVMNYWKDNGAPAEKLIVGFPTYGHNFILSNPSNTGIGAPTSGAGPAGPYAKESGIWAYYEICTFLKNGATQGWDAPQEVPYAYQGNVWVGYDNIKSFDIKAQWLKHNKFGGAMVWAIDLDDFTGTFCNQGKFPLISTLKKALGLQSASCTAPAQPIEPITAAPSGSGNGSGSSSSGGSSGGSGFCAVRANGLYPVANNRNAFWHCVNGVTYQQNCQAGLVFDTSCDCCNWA

Structure (SMILES): Nc1n[nH]c(N2CCC(N(CCc3ccc(Cl)cc3)CC3CCCO3)CC2)n1 (centres undefined)
pIC50 [1]: 4.82
inhibition at 2 h, 10 µM [2]: 74%
pIC50 [3]: 7.77
pIC50 (Chitotriosidase-1 [4]): 7.57
pIC50 (Chitotriosidase-1 [5]): 5.97

Structure (SMILES): CNS(=O)(=O)CCN(CCc1ccc(Cl)cc1)C1CCN(c2nc(N)n[nH]2)CC1
inhibition at 2 h, 10 µM [2]: 13%
pIC50 [3]: 7.68
pIC50 (Chitotriosidase-1 [4]): 6.06
pIC50 (Chitotriosidase-1 [5]): 5.12

Structure (SMILES): C[C@@H](O)CN(CCc1ccc(Cl)cc1)C1CCN(c2nc(N)n[nH]2)CC1
pIC50 [1]: 5.21
pIC50 (Chitotriosidase-1 [4]): 6.48
pIC50 (Chitotriosidase-1 [5]): 5.17

Structure (SMILES): CNC(=O)CN(CCc1ccc(Cl)cc1)C1CCN(c2nc(N)n[nH]2)CC1
pIC50 [1]: 5.59
pIC50 [3]: 5.94
pIC50 (Chitotriosidase-1 [4]): 5.74
pIC50 (Chitotriosidase-1 [5]): 4.32

Structure (SMILES): CS(=O)(=O)NCCN(CCc1ccc(Cl)cc1)C1CCN(c2nc(N)n[nH]2)CC1
pIC50 [1]: 5.14
inhibition at 2 h, 10 µM [2]: 4%
pIC50 [3]: 7.66
pIC50 (Chitotriosidase-1 [4]): 5.92
pIC50 (Chitotriosidase-1 [5]): 4.90

Structure (SMILES): COCCN(CCc1ccc(Cl)cc1)C1CCN(c2nc(N)n[nH]2)CC1
pIC50 [1]: 5.55
pIC50 [3]: 7.26
pIC50 (Chitotriosidase-1 [4]): 7.08
pIC50 (Chitotriosidase-1 [5]): 5.77

Structure (SMILES): CO[C@H](C)CN(CCc1ccc(Cl)cc1)C1CCN(c2nc(N)n[nH]2)CC1
pIC50 [1]: 5.19
pIC50 [3]: 6.96
pIC50 (Chitotriosidase-1 [4]): 6.28
pIC50 (Chitotriosidase-1 [5]): 4.90

Structure (SMILES): Nc1n[nH]c(N2CCC(N(CCc3ccc(Cl)cc3)CC(=O)O)CC2)n1
pIC50 [1]: 5.10
pIC50 [3]: 6.40
pIC50 (Chitotriosidase-1 [4]): 5.72
pIC50 (Chitotriosidase-1 [5]): 4.68

Structure (SMILES): CNC(=O)NCCN(CCc1ccc(Cl)cc1)C1CCN(c2nc(N)n[nH]2)CC1
pIC50 [1]: 5.74
pIC50 [3]: 6.89
pIC50 (Chitotriosidase-1 [4]): 5.84
pIC50 (Chitotriosidase-1 [5]): 5.04

Structure (SMILES): Nc1n[nH]c(N2CCC(N(CCO)CCc3ccc(Cl)cc3)CC2)n1
pIC50 [1]: 5.20
pIC50 [3]: 6.87
pIC50 (Chitotriosidase-1 [4]): 6.42
pIC50 (Chitotriosidase-1 [5]): 5.32

These reach a higher pIC50 (Chitotriosidase-1 [5]). Values come first.

clearance [6]: 10.5 mL/min/kg
half-life [8]: 2.5 h
Cmax [9]: 1590 ng/mL
inhibition at 2 h, 10 µM [2]: 95%
logD [10]: 1.96
Cmax [11]: 2390 ng/mL
AUC [12]: 4980 ng·h/mL
half-life [13]: 2.14 h
pIC50 [14]: 5.10
Cmax [15]: 16500 ng/mL
Tmax [16]: 1 h
Cmax [18]: 1560 ng/mL
AUC(0-inf) [19]: 11100 ng·h/mL
bioavailability [20]: 70%
pIC50 [21]: 7.66
pIC50 [3]: 7.52
Tmax [22]: 1.5 h
solubility [23]: 310 µg/mL (≈ 823 µM)
half-life [24]: 7.95 h
bioavailability [25]: 48%
AUC(0-inf) [26]: 8010 ng·h/mL
Drug uptake [27]: 6.8%
pIC50 (Chitotriosidase-1 [4]): 7.32
pIC50 (Chitotriosidase-1 [5]): 7.13
pIC50 [28]: 6.52
half-life [29]: 2.68 h
AUC(0-inf) [30]: 4760 ng·h/mL
Structure (SMILES): Nc1nnc(N2CCC(N3CCOC[C@@H]3Cc3ccc(Cl)cc3)CC2)[nH]1
pIC50 [7]: 4.92
pIC50 [1]: 4.41
Activity [17]: Non-Toxic
Activity (Mus musculus): 37%

logD [10]: 0.68
pIC50 [3]: 7.17
pIC50 (Chitotriosidase-1 [5]): 6.87
Structure (SMILES): Nc1nc(N2CCC(N3C[C@H](O)C[C@@H]3Cc3ccc(Cl)cc3)CC2)n[nH]1
pIC50 [1]: 4.26

logD [10]: 1.15
pIC50 [3]: 6.92
pIC50 (Chitotriosidase-1 [5]): 6.37
Structure (SMILES): Nc1nnc(N2CCC(N3CCC[C@@H]3Cc3ccc(Cl)cc3)CC2)[nH]1
pIC50 [1]: 5.40

logD [10]: 1.56
pIC50 [3]: 7.68
pIC50 (Chitotriosidase-1 [4]): 7.36
pIC50 (Chitotriosidase-1 [5]): 6.59
Structure (SMILES): CO[C@@H]1C[C@H](Cc2ccc(Cl)cc2)N(C2CCN(c3n[nH]c(N)n3)CC2)C1
